Measurements taken from patent US6537770B1, “Assay for detecting phospho-N-acetylmuramyl-pentapeptide translocase activity” (priority 1999, dated 2003).

How the values were obtained:
[1] = target: T1, translocase enzyme (Escherichia coli membranes) (Escherichia coli, UniProt P0A6W3); assay: phospho-N-acetylmuramyl-pentapeptide translocase assay with 3H-propionated UDP-MPP, butanol extraction and scintillation counting; assay type: biochemical; settings: Tunicamycin at 0.3 μg/ml; FIG. 2
T1 construct: The membranes are prepared from spheroplast pellets which are commercially available; Each pellet contains a certain amount of E. coli Hfr H; endogenous in cells; host or cells: E. coli Hfr H membranes, prepared from commercially available spheroplast pellets
Method: Eppendorf tubes were individually filled with a total of 40 μl of the reaction mixture each, initially. The reaction mixture consisted of an aqueous buffer solution of 100 mM Tris-HCl (Tris[hydroxymethyl]aminomethane hydrochloride), 25 mM magnesium chloride, 50 Mm of potassium chloride, 0.1% w/v Triton X-100, 8 μM of propionated non-radioactive UDP-MPP, 2 μM of ^3H-propionated UDP-MPP at room temperature, 10 μl of the enzyme at a concentration of 5 μg per ml and 17.5 μl of water. To this a solution of a test compound (e.g. Tunicamycin) of varying concentration is added. […] The reaction commences with the addition of the enzyme.
The Escherichia coli membranes, which serve as a source of the enzyme, were prepared in the following manner.
The membranes are prepared from spheroplast pellets which are commercially available. Each pellet contains a certain amount of E. coli Hfr H. The pellet is thawed overnight at 4° C. The pellet is weighed and the figure is multiplied by 7.5. […] The pellet is again resuspended in the same volume of 50 mM Tris-HCl buffer solution of pH 7.5 as calculated in the previous paragraph, containing, 20 μg/ml DNAse, 20 μg/ml RNAse, 1 mM magnesium chloride and 1 mM β-mercapto ethanol. […]
The product is extracted with saturated n-butanol and washed with 50 μl of water. It is then counted, 25-50 μl at a time on a scintillation counter.

[2] = target: T1, translocase enzyme (Escherichia coli membranes); assay: reversal of the translocase reaction (Lipid I back to the water soluble precursor) on addition of UMP; assay type: biochemical; settings: 1 μM UMP added after 10 minutes reaction, stopped after about 3-4 minutes
From the text: The reaction catalysed by the enzyme translocase is known to be reversible. To show the reversible reaction, the enzyme reaction was continued for 10 mintues to form the radioactive product, undecaprenol-pyrophosphate-[2,3-^3H]propionate-N-acetylmuramylpentapeptide, Lipid I. This is seperated from its organic phase. Once the radioactive product is formed one set of reactions is stopped using the 2:1 pyridinium acetate and n-butanol mixture as described before. In a parallel set of reactions, 1 μM UMP is added. The reaction is then stopped after about 3-4 minutes. The lipid fraction can be extracted from both the sets of reactions. […] This indicates the reversal of Lipid I to the water soluble precursor.

T1 sequence (P0A6W3 whole entry): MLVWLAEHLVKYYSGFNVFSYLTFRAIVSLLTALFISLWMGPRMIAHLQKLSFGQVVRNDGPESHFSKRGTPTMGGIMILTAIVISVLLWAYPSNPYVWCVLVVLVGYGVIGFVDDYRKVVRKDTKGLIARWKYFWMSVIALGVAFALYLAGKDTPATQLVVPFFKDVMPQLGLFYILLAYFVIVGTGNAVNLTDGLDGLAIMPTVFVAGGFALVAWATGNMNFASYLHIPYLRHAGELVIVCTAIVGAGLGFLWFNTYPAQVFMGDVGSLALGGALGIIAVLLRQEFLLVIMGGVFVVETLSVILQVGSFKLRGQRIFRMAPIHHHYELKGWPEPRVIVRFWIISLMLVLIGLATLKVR

## Tunicamycin
[1]
  inhibition of translocase (rate, cpm versus time compared with control): antagonist of the translocase enzyme

## O=c1ccn([C@@H]2O[C@H](COP(=O)(O)O)[C@@H](O)[C@H]2O)c(=O)[nH]1 [UMP]
[2]
  radioactive count in the organic phase (Lipid I): reduced to basal levels
